target: human Cav2.2 (Homo sapiens, UniProt Q00975); assay: Assessment of calcium channel activity using FLIPR (Ca2+ influx in IMR32 cells); assay type: cell-based; conditions: not given
Procedure, shortened: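 IC50 values derive from nonlinear sigmoidal fitting of percent inhibition, relative to inhibitor-free activity, of Ca2+ influx read by FLIPR. Cells were IMR32 human neuroblastoma, plated at 1−1.2×10^5 per well and grown 48 h at 37 °C.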

Sequence of human Cav2.2 (Q00975 whole entry): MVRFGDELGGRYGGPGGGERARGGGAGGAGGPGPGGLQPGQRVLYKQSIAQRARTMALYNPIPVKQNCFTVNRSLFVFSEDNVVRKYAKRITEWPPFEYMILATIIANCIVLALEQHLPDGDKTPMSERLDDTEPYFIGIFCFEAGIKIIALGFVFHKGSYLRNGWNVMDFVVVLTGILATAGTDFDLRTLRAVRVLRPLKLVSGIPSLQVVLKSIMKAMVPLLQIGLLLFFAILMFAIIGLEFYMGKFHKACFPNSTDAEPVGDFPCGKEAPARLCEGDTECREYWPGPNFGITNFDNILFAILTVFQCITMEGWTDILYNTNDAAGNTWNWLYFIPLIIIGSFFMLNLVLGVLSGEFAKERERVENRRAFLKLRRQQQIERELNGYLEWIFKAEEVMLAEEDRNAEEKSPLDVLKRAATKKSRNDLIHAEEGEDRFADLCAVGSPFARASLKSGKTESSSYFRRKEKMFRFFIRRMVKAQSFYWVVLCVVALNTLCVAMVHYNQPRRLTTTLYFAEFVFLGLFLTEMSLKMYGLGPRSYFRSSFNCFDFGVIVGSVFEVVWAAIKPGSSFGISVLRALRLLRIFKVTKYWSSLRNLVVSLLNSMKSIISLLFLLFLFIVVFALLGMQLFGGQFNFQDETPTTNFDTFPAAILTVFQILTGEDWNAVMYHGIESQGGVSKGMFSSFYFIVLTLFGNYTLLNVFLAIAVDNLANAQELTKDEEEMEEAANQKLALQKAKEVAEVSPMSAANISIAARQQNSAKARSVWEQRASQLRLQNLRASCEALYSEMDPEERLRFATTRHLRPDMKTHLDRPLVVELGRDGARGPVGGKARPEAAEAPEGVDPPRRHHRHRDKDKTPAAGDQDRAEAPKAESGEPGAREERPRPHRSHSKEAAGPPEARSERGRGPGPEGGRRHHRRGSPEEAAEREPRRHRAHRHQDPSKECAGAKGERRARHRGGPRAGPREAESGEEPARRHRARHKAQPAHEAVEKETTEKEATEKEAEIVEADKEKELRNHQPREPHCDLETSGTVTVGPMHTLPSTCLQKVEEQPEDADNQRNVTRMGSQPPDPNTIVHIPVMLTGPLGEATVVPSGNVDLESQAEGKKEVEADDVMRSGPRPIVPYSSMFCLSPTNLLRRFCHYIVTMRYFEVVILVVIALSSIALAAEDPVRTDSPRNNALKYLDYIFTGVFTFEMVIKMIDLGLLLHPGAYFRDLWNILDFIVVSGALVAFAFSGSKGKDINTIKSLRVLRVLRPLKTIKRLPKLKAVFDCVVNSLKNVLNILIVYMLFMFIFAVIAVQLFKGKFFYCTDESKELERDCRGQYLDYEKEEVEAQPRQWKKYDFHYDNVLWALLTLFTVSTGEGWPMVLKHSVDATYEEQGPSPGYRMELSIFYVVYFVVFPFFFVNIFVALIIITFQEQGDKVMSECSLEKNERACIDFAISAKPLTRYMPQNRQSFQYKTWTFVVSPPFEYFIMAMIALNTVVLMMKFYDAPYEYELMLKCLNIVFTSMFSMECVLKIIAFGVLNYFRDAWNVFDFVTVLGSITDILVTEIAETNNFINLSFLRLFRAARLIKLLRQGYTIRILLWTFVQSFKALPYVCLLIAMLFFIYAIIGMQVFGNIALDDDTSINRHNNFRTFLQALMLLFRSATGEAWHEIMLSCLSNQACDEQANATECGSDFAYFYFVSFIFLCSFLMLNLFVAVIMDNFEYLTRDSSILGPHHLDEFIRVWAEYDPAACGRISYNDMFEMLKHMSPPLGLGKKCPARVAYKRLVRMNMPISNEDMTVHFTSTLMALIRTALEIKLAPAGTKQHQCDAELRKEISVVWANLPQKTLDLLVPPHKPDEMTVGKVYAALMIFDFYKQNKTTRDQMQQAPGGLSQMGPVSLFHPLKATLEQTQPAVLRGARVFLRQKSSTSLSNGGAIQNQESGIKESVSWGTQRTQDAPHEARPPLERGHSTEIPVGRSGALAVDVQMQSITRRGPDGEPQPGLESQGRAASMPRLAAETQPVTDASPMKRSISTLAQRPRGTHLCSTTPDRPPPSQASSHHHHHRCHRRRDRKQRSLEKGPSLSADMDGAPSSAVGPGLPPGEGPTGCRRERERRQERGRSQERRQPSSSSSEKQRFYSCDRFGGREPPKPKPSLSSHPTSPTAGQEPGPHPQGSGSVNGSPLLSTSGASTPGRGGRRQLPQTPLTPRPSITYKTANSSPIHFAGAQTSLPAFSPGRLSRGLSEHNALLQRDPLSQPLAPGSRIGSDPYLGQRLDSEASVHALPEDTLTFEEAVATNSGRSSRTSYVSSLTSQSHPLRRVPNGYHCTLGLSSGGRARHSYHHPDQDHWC
Sequence of human Cav2.2 (P54289 25-956 partner limits assumed): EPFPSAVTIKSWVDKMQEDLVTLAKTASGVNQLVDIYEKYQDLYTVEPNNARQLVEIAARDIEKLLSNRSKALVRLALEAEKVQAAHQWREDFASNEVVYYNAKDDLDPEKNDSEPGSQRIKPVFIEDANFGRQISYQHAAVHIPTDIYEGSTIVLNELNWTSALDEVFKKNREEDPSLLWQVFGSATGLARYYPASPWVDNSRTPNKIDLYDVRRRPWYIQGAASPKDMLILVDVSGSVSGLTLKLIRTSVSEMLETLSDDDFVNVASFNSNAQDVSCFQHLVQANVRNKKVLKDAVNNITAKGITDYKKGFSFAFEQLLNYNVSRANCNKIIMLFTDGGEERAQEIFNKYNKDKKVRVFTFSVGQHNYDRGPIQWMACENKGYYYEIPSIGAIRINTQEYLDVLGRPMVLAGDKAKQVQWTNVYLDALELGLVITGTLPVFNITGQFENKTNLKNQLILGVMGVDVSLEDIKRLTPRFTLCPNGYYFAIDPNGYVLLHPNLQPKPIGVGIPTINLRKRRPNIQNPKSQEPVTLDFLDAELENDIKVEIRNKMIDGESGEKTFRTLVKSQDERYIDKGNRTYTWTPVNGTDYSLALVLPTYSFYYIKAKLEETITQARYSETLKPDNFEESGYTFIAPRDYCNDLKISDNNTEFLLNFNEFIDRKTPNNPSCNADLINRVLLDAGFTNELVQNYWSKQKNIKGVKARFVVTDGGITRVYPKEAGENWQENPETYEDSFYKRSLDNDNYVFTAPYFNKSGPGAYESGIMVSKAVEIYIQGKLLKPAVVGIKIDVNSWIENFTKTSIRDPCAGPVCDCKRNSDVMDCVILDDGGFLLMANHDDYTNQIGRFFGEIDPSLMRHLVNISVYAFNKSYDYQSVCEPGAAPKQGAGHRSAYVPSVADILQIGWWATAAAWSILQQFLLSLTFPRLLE
Sequence of human Cav2.2 (P54289 957-1103 partner limits assumed): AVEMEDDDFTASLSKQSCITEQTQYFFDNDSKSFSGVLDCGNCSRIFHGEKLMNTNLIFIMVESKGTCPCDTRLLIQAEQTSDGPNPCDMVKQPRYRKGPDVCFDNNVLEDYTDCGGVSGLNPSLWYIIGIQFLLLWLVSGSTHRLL
Sequence of human Cav2.2 (P54284 whole entry partner): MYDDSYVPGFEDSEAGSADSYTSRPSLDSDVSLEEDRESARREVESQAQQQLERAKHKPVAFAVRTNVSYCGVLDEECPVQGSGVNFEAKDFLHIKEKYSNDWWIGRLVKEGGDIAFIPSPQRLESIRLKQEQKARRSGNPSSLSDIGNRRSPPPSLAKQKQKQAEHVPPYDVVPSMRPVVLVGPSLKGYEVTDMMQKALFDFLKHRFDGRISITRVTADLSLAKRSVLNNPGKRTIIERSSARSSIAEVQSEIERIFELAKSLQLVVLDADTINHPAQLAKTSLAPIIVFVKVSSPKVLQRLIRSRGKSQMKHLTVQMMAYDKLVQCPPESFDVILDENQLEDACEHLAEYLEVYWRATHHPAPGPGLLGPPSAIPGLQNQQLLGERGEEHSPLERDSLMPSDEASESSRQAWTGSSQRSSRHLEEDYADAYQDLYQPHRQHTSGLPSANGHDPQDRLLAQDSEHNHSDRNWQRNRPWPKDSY

SMILES	IC50
O=C(CCC(F)(F)F)N[C@H]1CC[C@@H]2CN(c3cccc(C(F)(F)F)n3)C[C@@H]21 [Example 582, 4,4,4-trifluoro-N-{(3aR,4S,6aS)-2-[6-(trifluoromethyl)pyridin-2-yl]octahydrocyclopenta[c]pyrrol-4-yl}butanamide]	0.96 µM
O=C(N[C@H]1CC[C@H]2CN(Cc3cccc(C(F)(F)F)c3)C[C@H]21)C1CCCCCC1 (relative stereo) [Example 128, N-{(3aS*,4S*,6aR*)-2-[3-(trifluoromethyl)benzyl]octahydrocyclopenta[c]pyrrol-4-yl}cycloheptanecarboxamide]	0.56 µM
O=C(N[C@H]1CC[C@@H]2CN(c3ccccc3C(F)(F)F)C[C@@H]21)[C@@H]1C[C@@H](F)CN1 [Example 622, (4R)-4-fluoro-N-{(3aR,4S,6aS)-2-[2-(trifluoromethyl)phenyl]octahydrocyclopenta[c]pyrrol-4-yl}-L-prolinamide]	1.69 µM
O=C(N[C@H]1CC[C@@H]2CN(c3cccc(C(F)(F)F)c3)C[C@@H]21)[C@@H]1C[C@@H](F)CN1 [Example 617, (4R)-4-fluoro-N-{(3aR,4S,6aS)-2-[3-(trifluoromethyl)phenyl]octahydrocyclopenta[c]pyrrol-4-yl}-L-prolinamide]	2.57 µM
O=C(N[C@H]1CC[C@H]2CN(Cc3cccc(C(F)(F)F)c3)C[C@H]21)C(O)(C1CCCCC1)C1CCCCC1 [Example 152, 2,2-dicyclohexyl-2-hydroxy-N-{(3aS,4S,6aR)-2-[3-(trifluoromethyl)benzyl]octahydrocyclopenta[c]pyrrol-4-yl}acetamide]	0.51 µM
O=C(N[C@H]1CC[C@@H]2CN(c3cccc(F)c3)C[C@@H]21)[C@@H]1C[C@@H](F)CN1 [Example 640, (4R)-4-fluoro-N-[(3aR,4S,6aS)-2-(3-fluorophenyl)octahydrocyclopenta[c]pyrrol-4-yl]-L-prolinamide]	14.4 µM
CC(C)C(C(=O)N[C@@H]1CC[C@@H]2CN(Cc3ccccc3)C[C@@H]21)c1ccccc1 (relative stereo) [Example 5, N-[(3aR*,4R*,6aS*)-2-benzyloctahydrocyclopenta[c]pyrrol-4-yl]-3-methyl-2-phenylbutanamide]	1.46 µM
CC(C)CC(=O)N[C@H]1CC[C@@H]2CN(Cc3ccccc3)C[C@@H]21 [Example 230, N-[(3aR,4S,6aS)-2-benzyloctahydrocyclopenta[c]pyrrol-4-yl]-3-methylbutanamide]	> 30 µM

Results, then the compound that gave them:

IC50	SMILES
0.82 µM	O=S(=O)(c1ccc(C(F)(F)F)cc1)N1C[C@H]2CC[C@H](NCc3cc4cc(F)ccc4[nH]3)[C@H]2C1 [Example 654, (3aR,4S,6aS)-N-[(5-fluoro-1H-indol-2-yl)methyl]-2-{[4-(trifluoromethyl)phenyl]sulfonyl}octahydrocyclopenta[c]pyrrol-4-amine]
1.3 µM	FC(F)(F)c1ccc(-c2nc(CN[C@H]3CC[C@@H]4CN(c5cccc(C(F)(F)F)n5)C[C@@H]43)c[nH]2)cc1 [Example 742, (3aR,4S,6aS)-N-({2-[4-(trifluoromethyl)phenyl]-1H-imidazol-4-yl}methyl)-2-[6-(trifluoromethyl)pyridin-2-yl]octahydrocyclopenta[c]pyrrol-4-amine]
26.4 µM	CN[C@@H](CC(C)C)C(=O)N[C@H]1CC[C@@H]2CN(c3nnc(C(F)(F)F)s3)C[C@@H]21 [Example 734, N^2-methyl-N-{(3aR,4S,6aS)-2-[5-(trifluoromethyl)-1,3,4-thiadiazol-2-yl]octahydrocyclopenta[c]pyrrol-4-yl}-L-leucinamide]
2.9 µM	CN[C@@H](CC(C)C)C(=O)N[C@H]1CC[C@@H]2CN(c3ccccc3C(F)F)C[C@@H]21 [Example 771, N-{(3aR,4S,6aS)-2-[2-(difluoromethyl)phenyl]octahydrocyclopenta[c]pyrrol-4-yl}-N^2-methyl-L-leucinamide]
0.41 µM	Cc1ccc(CN[C@H]2CC[C@@H]3CN(c4cccc(C(F)(F)F)n4)C[C@@H]32)cc1 [Example 649, (3aR,4S,6aS)-N-(4-methylbenzyl)-2-[6-(trifluoromethyl)pyridin-2-yl]octahydrocyclopenta[c]pyrrol-4-amine]
1.65 µM	Fc1ccc(-c2n[nH]cc2CN[C@H]2CC[C@@H]3CN(c4cccc(C(F)(F)F)n4)C[C@@H]32)cc1 [Example 672, (3aR,4S,6aS)-N-{[3-(4-fluorophenyl)-1H-pyrazol-4-yl]methyl}-2-[6-(trifluoromethyl)pyridin-2-yl]octahydrocyclopenta[c]pyrrol-4-amine]
0.87 µM	FC(F)(F)c1cccc(N2C[C@H]3CC[C@H](NCc4c[nH]nc4-c4ccccc4)[C@H]3C2)n1 [Example 682, (3aR,4S,6aS)-N-[(3-phenyl-1H-pyrazol-4-yl)methyl]-2-[6-(trifluoromethyl)pyridin-2-yl]octahydrocyclopenta[c]pyrrol-4-amine]
1.79 µM	CN[C@@H](CC(C)C)C(=O)N[C@H]1CC[C@@H]2CN(c3ccc(F)c(Cl)c3)C[C@@H]21 [Example 773, N-[(3aR,4S,6aS)-2-(3-chloro-4-fluorophenyl)octahydrocyclopenta[c]pyrrol-4-yl]-N^2-methyl-L-leucinamide]

same assay, conditions: read-out: IC50 (μM) or percent inhibition (* indicates 3 minute incubation, otherwise 60 minute); IC50; 60 minute pre-incubation with compound; IMR32 cells, 80 mM KCl depolarization

IC50	SMILES
12.4 µM	O=C(N[C@@H]1CC[C@H]2CN(Cc3ccc(F)cc3)C[C@H]21)[C@@H]1CCCCN1 [Example 368, (2S)-N-[(3aS,4R,6aR)-2-(4-fluorobenzyl)octahydrocyclopenta[c]pyrrol-4-yl]piperidine-2-carboxamide]
1.99 µM	CC(C)C(C(=O)N(C)[C@@H]1CC[C@H]2CN(Cc3ccccc3)C[C@H]21)c1ccccc1 (relative stereo) [Example 215, N-[(3aS*,4R*,6aR*)-2-benzyloctahydrocyclopenta[c]pyrrol-4-yl]-N,3-dimethyl-2-phenylbutanamide]
2.8 µM	CCC[C@@H](C(=O)N[C@@H]1CC[C@H]2CN(Cc3ccccc3)C[C@H]21)N(C)C(=O)OC(C)(C)C [Example 233, tert-butyl(S)-1-((3aS,4R,6aR)-2-benzyloctahydrocyclopenta[c]pyrrol-4-ylamino)-1-oxopentan-2-yl(methyl)carbamate]
3.26 µM	Cc1cccc(C)c1CN1C[C@H]2CC[C@H](NC(=O)C(c3ccccc3)C(C)C)[C@H]2C1 (stereo partly drawn) [Example 93, N-[(3aR,4S,6aS)-2-(2,6-dimethylbenzyl)octahydrocyclopenta[c]pyrrol-4-yl]-3-methyl-2-phenylbutanamide]
1.41 µM	CN[C@@H](CC(C)C)C(=O)N[C@@H]1CC[C@H]2CN(S(=O)(=O)c3ccc(C(F)(F)F)cc3)C[C@H]21 [Example 183, N^2-methyl-N^1-((3aS,4R,6aR)-2-{[4-(trifluoromethyl)phenyl]sulfonyl}octahydrocyclopenta[c]pyrrol-4-yl)-L-leucinamide]
16.5 µM	O=C(N[C@H]1CC[C@H]2CN(Cc3ccccc3)C[C@H]21)C(C1CCCCC1)C1CCCCC1 [Example 15, N-[(3aS,4S,6aR)-2-benzyloctahydrocyclopenta[c]pyrrol-4-yl]-2,2-dicyclohexylacetamide]
0.83 µM	O=S(=O)(c1cccc(C(F)(F)F)c1)N(C1CC1)[C@H]1CC[C@H]2CN(CCCCCC(c3ccc(F)cc3)c3ccc(F)cc3)C[C@H]21 (relative stereo) [Example 202, N-{(3aS*,4S*,6aR*)-2-[6,6-bis(4-fluorophenyl)hexyl]octahydrocyclopenta[c]pyrrol-4-yl}-N-cyclopropyl-3-(trifluoromethyl)benzenesulfonamide]
